For test [1], the system named is human colon carcinoma cell line HCT 116. Kind of test: Anti-proliferative activity, Alamar Blue assay. Particulars: HCT 116, 72 hours, read-out: IC50 (inhibition of cell growth). Type of test: cell-based. On the procedure:
The anti-proliferative activities of compounds of the invention are determined by measuring the ability of the compounds to inhibition of cell growth in a number of cell lines Inhibition of cell growth is measured using the Alamar Blue assay (Nociari, M. M, Shalev, A., Benias, P., Russo, C. Journal of Immunological Methods 1998, 213, 157-167). The method is based on the ability of viable cells to reduce resazurin to its fluorescent product resorufin. For each proliferation assay cells are plated onto 96 well plates and allowed to recover for 16 hours prior to the addition of inhibitor compounds for a further 72 hours. At the end of the incubation period 10% (v/v) Alamar Blue is added and incubated for a further 6 hours prior to determination of fluorescent product at […]. In the case of the non-proliferating cell assay cells are maintained at confluence for 96 hour prior to the addition of inhibitor compounds for a further 72 hours. The number of viable cells is determined by Alamar Blue assay as before. All cell lines are obtained from ECACC (European Collection of cell Cultures).
Background: The colour change of resazurin is a common sign of viable cells or microbes.

A further test deals with T1, GSK3-β (Homo sapiens, UniProt P49841).
T1 construct: purchased Upstate Discovery
Kind of test: Inhibitory activity against glycogen synthase kinase-3 (Protocol A or B). Type of test: biochemical. To be noted: either Protocol A or Protocol B; read-out: IC50 (GSK3-B assays). Here is the method:
The activities of the compounds of the invention as inhibitors of GSK-3 were determined using either Protocol A or Protocol B below.
The reaction is allowed to proceed for 3 hours before being stopped with an excess of ortho-phosphoric acid (5 μl at 2%). The filtration procedure is as for Activated CDK2/CyclinA assay above.
GSK3β (human) is diluted to a 10× working stock in 50 mM Tris pH 7.5, 0.1 mM EGTA, 0.1 mM sodium vanadate, 0.1% β-mercaptoethanol, 1 mg/ml BSA.

Some results are limits rather than exact numbers.

We go through 4 compounds from patent US9051278B2, “3,4-disubstituted 1H-pyrazole compounds and their use as cyclin dependent kinase and glycogen synthase kinase-3 modulators” (Astex Therapeutics, Ltd., priority 2003, dated 2015).

For orientation: IC50 means the concentration needed to halve the response being measured.

T1 sequence (P49841 whole entry): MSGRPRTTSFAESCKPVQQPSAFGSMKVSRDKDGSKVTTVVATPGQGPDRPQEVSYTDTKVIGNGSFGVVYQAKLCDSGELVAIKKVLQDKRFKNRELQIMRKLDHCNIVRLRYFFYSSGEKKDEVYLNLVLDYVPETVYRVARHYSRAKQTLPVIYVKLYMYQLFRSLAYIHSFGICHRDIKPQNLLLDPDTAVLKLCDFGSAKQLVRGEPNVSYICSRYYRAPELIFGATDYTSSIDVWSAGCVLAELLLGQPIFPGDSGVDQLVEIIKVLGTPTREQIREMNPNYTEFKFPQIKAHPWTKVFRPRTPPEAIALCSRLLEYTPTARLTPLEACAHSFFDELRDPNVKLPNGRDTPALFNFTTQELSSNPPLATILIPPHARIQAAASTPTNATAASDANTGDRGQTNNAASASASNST

Consider `CC(C)(C)C1CCC(NC(=O)c2n[nH]cc2NC(=O)c2c(F)cccc2F)CC1` (centres unmarked) [Example 77], for which the half-inhibitory concentration (IC50) in test [1] was less than 20 µM; on GSK3-β, less than 10 µM.
Regarding `CN1CCN(c2ccc(CNC(=O)c3n[nH]cc3NC(=O)c3c(F)cccc3F)cc2)CC1` [Example 64], the IC50 in test [1] is less than 20 µM.
The same measure, in the same setting: for `COc1ccc(CNC(=O)c2n[nH]cc2NC(=O)c2c(F)cccc2F)cc1` [Example 62] the value was less than 20 µM.
As for `O=C(NC1CCNCC1)c1n[nH]cc1NC(=O)c1c(Cl)cccc1Cl` [Example 150], the IC50 in test [1] was less than 20 µM.
